Laboratory results reported in PubChem BioAssay (NCI).
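Briefly, cells in 96-well plates were exposed to five compound concentrations for 48 h, and endpoints were estimated by linear interpolation. GI50 = concentration required for 50% inhibition of growth. TGI: concentration producing complete growth inhibition.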

Legend:
Experiment in all cases: NCI tumour cell line growth inhibition, 48 h
[1] = tested on: 786-0 renal
[2] = tested on: A549 NSCLC
[3] = tested on: ACHN renal
[4] = tested on: BT-549 breast
[5] = tested on: CAKI-1 renal
[6] = tested on: CCRF-CEM leukemia
[7] = tested on: COLO 205 colon
[8] = tested on: DU-145 prostate
[9] = tested on: EKVX NSCLC
[10] = tested on: HCT-116 colon
[11] = tested on: HCT-15 colon
[12] = tested on: HL-60(TB) leukemia
[13] = tested on: HOP-62 NSCLC
[14] = tested on: HOP-92 NSCLC
[15] = tested on: HS 578T breast
[16] = tested on: HT29 colon
[17] = tested on: IGROV1 ovarian
[18] = tested on: K-562 leukemia
[19] = tested on: KM12 colon
[20] = tested on: LOX IMVI melanoma
[21] = tested on: M14 melanoma
[22] = tested on: MALME-3M melanoma
[23] = tested on: MCF7 breast
[24] = tested on: MDA-MB-231 breast
[25] = tested on: MDA-MB-435
[26] = tested on: MOLT-4 leukemia
[27] = tested on: NCI-H226 lung
[28] = tested on: NCI-H23 lung
[29] = tested on: NCI-H460 lung
[30] = tested on: NCI-H522 lung
[31] = tested on: NCI/ADR-RES ovarian
[32] = tested on: OVCAR-3 ovarian
[33] = tested on: OVCAR-4 ovarian
[34] = tested on: OVCAR-5 ovarian
[35] = tested on: OVCAR-8 ovarian
[36] = tested on: PC-3 prostate
[37] = tested on: RPMI-8226 leukemia
[38] = tested on: RXF 393 renal
[39] = tested on: SF-268 CNS
[40] = tested on: SF-295 CNS
[41] = tested on: SF-539 CNS
[42] = tested on: SK-MEL-2 melanoma
[43] = tested on: SK-MEL-28 melanoma
[44] = tested on: SK-MEL-5 melanoma
[45] = tested on: SN12C renal
[46] = tested on: SNB-75 CNS
[47] = tested on: SR leukemia
[48] = tested on: SW-620 colon
[49] = tested on: T-47D breast
[50] = tested on: U251 CNS
[51] = tested on: UACC-257 melanoma
[52] = tested on: UACC-62 melanoma
[53] = tested on: UO-31 renal
[54] = tested on: SK-OV-3 ovarian
[55] = tested on: SNB-19 CNS
[56] = tested on: TK-10 renal

Work on `CCN1C(=O)N(c2c(F)c(OC)cc(OC)c2F)Cc2cnc3[nH]c(CN4CCOCC4)cc3c21` yielded a GI50 [1] of 2.84 µM, a TGI [1] of 30.1 µM and a GI50 [2] of 2.83 µM. It also gave a TGI [2] greater than 100 µM, a GI50 [3] of 1.02 µM and a TGI [3] of 14.1 µM. The GI50 [4] was 0.0491 µM, the TGI [4] was 15.7 µM and the GI50 [5] was 0.528 µM. The TGI [5] was greater than 100 µM, the GI50 [6] was 2.13 µM and the TGI [6] was greater than 100 µM. For the same molecule, the GI50 [7] was 3.15 µM, the TGI [7] was greater than 100 µM and the GI50 [8] was 1.99 µM. For the same molecule, the TGI [8] was greater than 100 µM, the GI50 [9] was 9.49 µM and the TGI [9] was greater than 100 µM. The GI50 [10] was 1.84 µM, the TGI [10] was 19.4 µM and the GI50 [11] was 0.947 µM. For the same molecule, the TGI [11] was greater than 100 µM, the GI50 [12] was 3.05 µM and the TGI [12] was greater than 100 µM. The GI50 [13] was 2.35 µM, the TGI [13] was greater than 100 µM and the GI50 [14] was 2.06 µM. It also gave a TGI [14] greater than 100 µM, a GI50 [15] of 1.82 µM and a TGI [15] greater than 100 µM. The GI50 [16] was 2.84 µM, the TGI [16] was greater than 100 µM and the GI50 [17] was 1.44 µM. The TGI [17] was greater than 100 µM, the GI50 [18] was 8.66 µM and the TGI [18] was greater than 100 µM. For the same molecule, the GI50 [19] was 5.08 µM, the TGI [19] was greater than 100 µM and the GI50 [20] was 2.37 µM. For the same molecule, the TGI [20] was greater than 100 µM, the GI50 [21] was 1.32 µM and the TGI [21] was greater than 100 µM. The GI50 [22] was 1.45 µM, the TGI [22] was 20.2 µM and the GI50 [23] was 8.04 µM. It also gave a TGI [23] greater than 100 µM, a GI50 [24] of 3.06 µM and a TGI [24] of 39.3 µM. For the same molecule, the GI50 [25] was 4.65 µM, the TGI [25] was greater than 100 µM and the GI50 [26] was 2.56 µM. It also gave a TGI [26] of 59.9 µM, a GI50 [27] of 0.8 µM and a TGI [27] greater than 100 µM. The GI50 [28] was 7.03 µM, the TGI [28] was greater than 100 µM and the GI50 [29] was 1.86 µM. It also gave a TGI [29] greater than 100 µM, a GI50 [30] of 3.12 µM and a TGI [30] greater than 100 µM. It also gave a GI50 [31] of 4.48 µM, a TGI [31] greater than 100 µM and a GI50 [32] of 5.73 µM. It also gave a TGI [32] greater than 100 µM, a GI50 [33] of 1.69 µM and a TGI [33] greater than 100 µM. It also gave a GI50 [34] of 9.23 µM, a TGI [34] greater than 100 µM and a GI50 [35] of 3.98 µM. The TGI [35] was greater than 100 µM, the GI50 [36] was 4.34 µM and the TGI [36] was greater than 100 µM. For the same molecule, the GI50 [37] was 3.79 µM, the TGI [37] was greater than 100 µM and the GI50 [38] was 0.394 µM. It also gave a TGI [38] of 8.08 µM, a GI50 [39] of 2.19 µM and a TGI [39] greater than 100 µM. For the same molecule, the GI50 [40] was 3.83 µM, the TGI [40] was greater than 100 µM and the GI50 [41] was 1.01 µM. For the same molecule, the TGI [41] was 13.7 µM, the GI50 [42] was 1.08 µM and the TGI [42] was 41.8 µM. The GI50 [43] was 8.06 µM, the TGI [43] was greater than 100 µM and the GI50 [44] was 16.9 µM. The TGI [44] was greater than 100 µM, the GI50 [45] was 2.78 µM and the TGI [45] was 28.2 µM. For the same molecule, the GI50 [46] was 1.13 µM, the TGI [46] was 26.5 µM and the GI50 [47] was 1.62 µM. It also gave a TGI [47] of 9.95 µM, a GI50 [48] of 3.51 µM and a TGI [48] greater than 100 µM. The GI50 [49] was 3.04 µM, the TGI [49] was 25 µM and the GI50 [50] was 2.75 µM. The TGI [50] was greater than 100 µM, the GI50 [51] was 4.69 µM and the TGI [51] was greater than 100 µM. For the same molecule, the GI50 [52] was 3.77 µM, the TGI [52] was 51.5 µM and the GI50 [53] was 0.878 µM. It also gave a TGI [53] greater than 100 µM.
Molecule `Cc1c2c(nn1-c1ccc(S/N=C3\SCC(=O)CN3c3ccccc3)cc1)-c1ccccc1CC2` has a GI50 [1] of 13.3 µM, a TGI [1] greater than 50 µM and a GI50 [2] greater than 50 µM. The TGI [2] was greater than 50 µM, the GI50 [3] was 24.1 µM and the TGI [3] was greater than 50 µM. The GI50 [4] was 11.1 µM, the TGI [4] was 34.5 µM and the GI50 [5] was 18.1 µM. For the same molecule, the TGI [5] was greater than 50 µM, the GI50 [6] was 28.1 µM and the TGI [6] was greater than 50 µM. For the same molecule, the GI50 [7] was greater than 50 µM, the TGI [7] was greater than 50 µM and the GI50 [8] was 43.9 µM. For the same molecule, the TGI [8] was greater than 50 µM, the GI50 [9] was greater than 50 µM and the TGI [9] was greater than 50 µM. For the same molecule, the GI50 [10] was 6.5 µM, the TGI [10] was 15.9 µM and the GI50 [11] was 21.2 µM. The TGI [11] was greater than 50 µM, the GI50 [12] was greater than 50 µM and the TGI [12] was greater than 50 µM. The GI50 [13] was 12.7 µM, the TGI [13] was 47.7 µM and the GI50 [14] was greater than 50 µM. For the same molecule, the TGI [14] was greater than 50 µM, the GI50 [15] was 15.5 µM and the TGI [15] was greater than 50 µM. For the same molecule, the GI50 [16] was 34.5 µM, the TGI [16] was greater than 50 µM and the GI50 [17] was 8.31 µM. It also gave a TGI [17] of 21.4 µM, a GI50 [18] of 17.6 µM and a TGI [18] greater than 50 µM. It also gave a GI50 [19] of 46.5 µM, a TGI [19] greater than 50 µM and a GI50 [20] of 5.59 µM. It also gave a TGI [20] of 34.2 µM, a GI50 [21] of 13.4 µM and a TGI [21] of 43.7 µM. The GI50 [22] was greater than 50 µM, the TGI [22] was greater than 50 µM and the GI50 [23] was 7.79 µM. It also gave a TGI [23] of 36.7 µM, a GI50 [24] of 15.4 µM and a TGI [24] greater than 50 µM. For the same molecule, the GI50 [25] was 16.8 µM, the TGI [25] was greater than 50 µM and the GI50 [26] was 19.6 µM. For the same molecule, the TGI [26] was greater than 50 µM, the GI50 [27] was 9.75 µM and the TGI [27] was 27 µM. It also gave a GI50 [28] of 32.3 µM, a TGI [28] greater than 50 µM and a GI50 [29] of 15.2 µM. For the same molecule, the TGI [29] was greater than 50 µM, the GI50 [30] was 15.4 µM and the TGI [30] was greater than 50 µM. It also gave a GI50 [31] of 14.5 µM, a TGI [31] greater than 50 µM and a GI50 [32] greater than 50 µM. For the same molecule, the TGI [32] was greater than 50 µM, the GI50 [33] was 37.6 µM and the TGI [33] was greater than 50 µM. For the same molecule, the GI50 [34] was greater than 50 µM, the TGI [34] was greater than 50 µM and the GI50 [35] was greater than 50 µM. It also gave a TGI [35] greater than 50 µM, a GI50 [36] of 20.4 µM and a TGI [36] greater than 50 µM. It also gave a GI50 [37] of 7.85 µM, a TGI [37] greater than 50 µM and a GI50 [38] of 31.5 µM. For the same molecule, the TGI [38] was greater than 50 µM, the GI50 [39] was 20.2 µM and the TGI [39] was greater than 50 µM. For the same molecule, the GI50 [40] was greater than 50 µM, the TGI [40] was greater than 50 µM and the GI50 [41] was 22.4 µM. For the same molecule, the TGI [41] was greater than 50 µM, the GI50 [42] was 18.2 µM and the TGI [42] was 47 µM. For the same molecule, the GI50 [43] was 28.5 µM, the TGI [43] was greater than 50 µM and the GI50 [44] was 8.11 µM. The TGI [44] was 22.3 µM, the GI50 [54] was 43.3 µM and the TGI [54] was greater than 50 µM. It also gave a GI50 [45] of 17.8 µM, a TGI [45] greater than 50 µM and a GI50 [55] greater than 50 µM. For the same molecule, the TGI [55] was greater than 50 µM, the GI50 [46] was greater than 50 µM and the TGI [46] was greater than 50 µM. The GI50 [47] was 1.88 µM, the TGI [47] was greater than 50 µM and the GI50 [48] was 19.1 µM. The TGI [48] was greater than 50 µM, the GI50 [49] was 24.7 µM and the TGI [49] was greater than 50 µM. The GI50 [56] was greater than 50 µM, the TGI [56] was greater than 50 µM and the GI50 [50] was 21.1 µM. It also gave a TGI [50] greater than 50 µM, a GI50 [51] of 45.3 µM and a TGI [51] greater than 50 µM. For the same molecule, the GI50 [52] was 16 µM, the TGI [52] was greater than 50 µM and the GI50 [53] was 28.4 µM. For the same molecule, the TGI [53] was greater than 50 µM.
